Results as given in patent US10329309B2, “3-(3H-imidazo[4,5-B]pyridin-2-yl)-1H-pyrazolo[4,3-B]pyridines and therapeutic uses thereof” (Samumed, LLC, priority 2015, dated 2019).
pEC50: −log10 of the molar value.

Assays:
Type in all cases: cell-based
SW480 colon cancer cells = experiment: Cell viability assay (CellTiter-Blue), four days; conditions: Homo sapiens, 96 h, CellTiter-Blue cell viability
Protocol: Representative compounds were screened using the following assay procedure to assess the effect on cell viability as described below.
Each compound was dissolved in DMSO as a 10 mM stock and used to prepare compound source plates. Serial dilution (1:3, 8-point dose-response curves from 10 μM to 0.0045 μM) and compound transfer was performed using the ECHO 550 (Labcyte, Sunnyvale, Calif.) into 96-well clear bottom, black-walled plates (Corning-Costar).
Approximately 2×10^3 SW480 colon cancer cells were seeded into each well and allowed to incubate in the presence or absence of compound for four days at 37° C./5% CO2. Eight replicates of DMSO-treated cells served as controls and cells treated with compound were performed in duplicate.
After incubation, 20 μL of CellTiter-Blue (Promega) was added to each well allowed to incubate for approximately 3 hours. This reagent was a buffered solution which contains resazurin, metabolically active cells were able to reduce rezarurin (blue) into resorufin (pink) which was highly fluorescent. This measured fluorescence was used as a readout for cell viability.
After incubation, the plates were read at Ex 560 nm Em 590 nm (Cytation 3, BioTek). Dose-response curves were generated and EC50 concentration values were calculated using non-linear regression curve fit in the GraphPad Prism (San Diego, Calif.) or Dotmatics' Studies Software (Bishops Stortford, UK). For EC50 of >10 μM, the percent inhibition at 10 μM is provided.

[1] = test system: Wnt activity (Sp5-Luc reporter, SW480 colon carcinoma cells); experiment: Screening assay for Wnt activity: Sp5-Luc reporter gene assay in SW480 cells; conditions: Homo sapiens, overnight incubation, 10-point dose-response from 10 μM
Description: The screening assay for Wnt activity is described as follows. Reporter cell lines can be generated by stably transducing cancer cell lines (e.g., colon cancer) or primary cells (e.g., IEC-6 intestinal cells) with a lentiviral construct that includes a Wnt-responsive promoter driving expression of the firefly luciferase gene.
SW480 colon carcinoma cells were transduced with a lentiviral vector expressing luciferase with a human Sp5 promoter consisting of a sequence of eight TCF/LEF binding sites. SW480 cells stably expressing the Sp5-Luc reporter gene and a hygromycin resistance gene were selected by treatment with 150 μg/mL of hygromycin for 7 days. These stably transduced SW480 cells were expanded in cell culture and used for all further screening activities. Each compound was dissolved in DMSO as a 10 mM stock and used to prepare compound source plates. Serial dilution (1:3, 10-point dose-response curves starting from 10 μM) and compound transfer was performed using the ECHO 550 (Labcyte, Sunnyvale, Calif.) into 384-well white solid bottom assay plates (Greiner Bio-One) with appropriate DMSO backfill for a final DMSO concentration of 0.1%. For Sp5-Luc reporter gene assays, the cells were plated at 4,000 cells/well in 384-well plates with medium containing 1% fetal bovine serum and incubated overnight at 37° C. and 5% CO2. Following incubation, 20 μl of BrightGlo luminescence reagent (Promega) was added to each well of the 384-well assay plates. The plates were placed on an orbital shaker for 2 min and then luminescence was quantified using the Envision (Perkin Elmer) plate reader. Readings were normalized to DMSO only treated cells, and normalized activities were utilized for EC50 calculations using the dose-response log (inhibitor) vs. response -variable slope (four parameters) nonlinear regression feature available in GraphPad Prism 5.0 (or Dotmatics). For EC50 of >10 μM, the percent inhibition at 10 μM is provided.

IL-6 (THP-1 cells) = experiment: Inhibition of IL-6 in LPS-stimulated THP-1 monocytes (HTRF); conditions: Homo sapiens, LPS 500 ng/mL, IL-6 by HTRF
Protocol: Human monocyte cell line (THP-1 cells; Catalog # TIB-202, ATCC, Manassas, Va.) were cultured in Roswell Park Memorial Institute (RPMI) 1640 Medium (Catalog #21870-100, Buffalo, N.Y.) with 1% L-glutamine, 1% HEPES, 1% Sodium Pyruvate, 2% Sodium Bicarbonate supplemented with 100 units/mL penicillin, 50 μg/mL streptomycin, 2-mercaptoethanol (0.05 mM) [basal medium] and 10% fetal bovine serum (Catalog #16140089, Life Technologies, Carlsbad, Calif.) at 37° C. and 5% CO2.
THP-1 cells were cultured in basal media with 1% FBS for 24 hours before the start of the assay. Each compound was dissolved in DMSO as a 10 mM stock and used to prepare compound source plates. Serial dilution (1:3, 10-point dose-response curves starting from 10 μM) and compound transfer was performed using the ECHO 550 (Labcyte, Sunnyvale, Calif.) into 384-well white low volume assay plates (Greiner Bio-One) with appropriate DMSO backfill for a final DMSO concentration of 0.1%. THP-1 cells were plated at 5000 cells/well in the 384-well plates and incubated at 37° C. for 2 h. 500 ng/mL of LPS was added after 2 hours and cells were incubated for another 22 hours at 37° C. Plates were spun in a centrifuge for 1 minute at […] and a mixture of anti-IL6 XL665, and anti-IL6 Cryptate diluted in reconstitution buffer (Cisbio Inc.) was added to each well. Following incubation for 3 hrs at room temperature, Homogeneous Time-Resolved Fluorescence (HTRF) was measured using the Envision (Perkin Elmer) at 665 nm and […]. The ratio of fluorescence at 665 nm to 620 nm was used as a readout for IL6 quantification. All samples were processed in duplicate. Readings were normalized to DMSO treated cells and normalized activities were utilized for EC50 calculations using the dose-response log (inhibitor) vs. response -variable slope (four parameters) nonlinear regression feature available in GraphPad Prism 5.0 (or Dotmatics). For EC50 of >10 μM, the percent inhibition at 10 μM is provided.

[2] = test system: primary human fibroblasts derived from IPF patients (LL29 cells), α-smooth muscle actin (αSMA); experiment: Inhibition of the fibrotic process: TGF-β1-treated primary human fibroblasts from IPF patients, αSMA staining; conditions: Fibroblast, 96 h, LL29 fibroblasts from IPF patients, TGF-β1 20 ng/mL, 4 days, inhibition of fibrotic process
Description: Representative compounds were screened using primary human fibroblasts (derived from IPF patients) treated with TGF-β1 to determine their ability to inhibit the fibrotic process.
Primary human fibroblasts derived from IPF patients (LL29 cells) [^1Xiaoqiu Liu, et. al., “Fibrotic Lung Fibroblasts Show Blunted Inhibition by cAMP Due to Deficient cAMP Response Element-Binding Protein Phosphorylation”, Journal of Pharmacology and Experimental Therapeutics (2005), 315(2), 678-687; ^2Watts, K. L., et. al., “RhoA signaling modulates cyclin D1 expression in human lung fibroblasts; implications for idiopathic pulmonary fibrosis”, Respiratory Research (2006), 7(1), 88] were obtained from American Type Culture Collection (ATCC) and expanded in F12 medium supplemented with 15% Fetal Bovine Serum and Penicillin/Streptomycin.
Each compound was dissolved in DMSO as a 10 mM stock and used to prepare compound source plates. Serial dilution (1:2, 11-point dose-response curves from 10 μM to 1.87 nM) and compound transfer was performed using the ECHO 550 (Labcyte, Sunnyvale, Calif.) into 384-well clear bottom assay plates (Greiner Bio-One) with appropriate DMSO backfill for a final DMSO concentration of 0.1%. LL29 cells are plated at 1,500 cells/well in 80 μL/well F12 medium supplemented with 1% Fetal Bovine Serum. One hour after addition of the cells, TGF-β1 (Peprotech; 20 ng/mL) was added to the plates to induce fibrosis (ref. 1 and 2 above). Wells treated with TGF-β1 and containing DMSO were used as controls. Cells were incubated at 37° C. and 5% CO2 for 4 days. Following incubation for 4 days, SYTOX green nucleic acid stain (Life Technologies [Thermo Fisher Scientific]) was added to the wells at a final concentration of 1 μM and incubated at room temperature for 30 min. Cells were then fixed using 4% formaldehyde (Electron Microscopy Sciences), washed 3 times with PBS followed by blocking and permeabilization using 3% Bovine Serum Albumin (BSA; Sigma) and 0.3% Triton X-100 (Sigma) in PBS. Cells were then stained with antibody specific to α-smooth muscle actin (αSMA; Abcam) (ref. 1 and 2 above) in 3% Bovine Serum Albumin (BSA; Sigma) and 0.3% Triton X-100 (Sigma) in PBS, and incubated overnight at 4° C. Cells were then washed 3 times with PBS, followed by incubation with Alexa Flor-647 conjugated secondary antibody (Life Technologies [Thermo Fisher Scientific]) and DAPI at room temperature for 1 hour. Cells were then washed 3 times with PBS and plates were sealed for imaging. αSMA staining was imaged by excitation at 630 nm and emission at 665 nm and quantified using the Compartmental Analysis program on the CellInsight CX5 (Thermo Scientific). Dead or apoptotic cells were excluded from analysis based on positive SYTOX green staining. % of total cells positive for αSMA were counted in each well and normalized to the average of 11 wells treated with TGF-β1 on the same plate using Dotmatics' Studies Software. The normalized averages (fold change over untreated) of 3 replicate wells for each compound concentration were used to create dose-responses curves and EC50 values were calculated using non-linear regression curve fit in the Dotmatics' Studies Software. For EC50 of >10 μM, the percent inhibition at 10 μM is provided.

pEC50 (SW480 colon cancer cells)	pEC50 [1]	pEC50 (IL-6 (THP-1 cells))	Compound	pEC50 [2]
6.03	6.21	6.20	Cc1ncc(-c2ccc3[nH]nc(-c4nc5c(-c6cc(F)cc(NCCN(C)C)c6)ccnc5[nH]4)c3n2)n1C [Compound 781, N^1-(3-(2-(5-(1,2-Dimethyl-1H-imidazol-5-yl)-1H-pyrazolo[4,3-b]pyridin-3-yl)-3H-imidazo[4,5-b]pyridin-7-yl)-5-fluorophenyl)-N^2,N^2-dimethylethane-1,2-diamine]	5.32
5.55	5.44	5.58	CN(C)CCNc1cc(F)cc(-c2ccnc3[nH]c(-c4n[nH]c5ccc(-c6cncc(CNCC7CCCC7)c6)nc45)nc23)c1 [Compound 473, N^1-(3-(2-(5-(5-(((Cyclopentylmethyl)amino)methyl)pyridin-3-yl)-1H-pyrazolo[4,3-b]pyridin-3-yl)-3H-imidazo[4,5-b]pyridin-7-yl)-5-fluorophenyl)-N^2,N^2-dimethylethane-1,2-diamin]	5.81
6.39	6.14	5.86	c1csc(-c2ccnc3[nH]c(-c4n[nH]c5ccc(-c6ccncc6)nc45)nc23)c1 [Compound 354, 5-(Pyridin-4-yl)-3-(7-(thiophen-2-yl)-3H-imidazo[4,5-b]pyridin-2-yl)-1H-pyrazolo[4,3-b]pyridine]	6.41
